US20260098008A1, “COVALENT, CHEMOGENETIC ACTIVATORS FOR K2P POTASSIUM CHANNELS AND USES THEREOF” (THE REGENTS OF THE UNIVERSITY OF CALIFORNIA, priority 2022, published 2026)

What was measured:
[1] = Solubility in aqueous solutions (crystallization sample preparation); assay type: physicochemical
Procedure: K2P2.1cryst ML335 and ML402 complex crystals grew in the same conditions as K2P2.1cyst, but the protein was incubated for at least 1 h with 2.5 mM of activator before setting the crystal plates. […] Then each compound was diluted 1:100 in SEC buffer to 5 mM concentration, giving a milky solution. This solution was mixed 1:1 to K2P2.1cryst previously concentrated to 12 mg ml^−1. […] The samples were briefly centrifuged in a table-top centrifuge (10,000 g) to remove any insoluble material before setting the crystal plates.

K2P4.1 (TRAAK) = target: T1, K2P4.1 (TRAAK) (Homo sapiens, UniProt Q9NYG8); settings: previous studies; cited from earlier work
T1 sequence (Q9NYG8 1-393): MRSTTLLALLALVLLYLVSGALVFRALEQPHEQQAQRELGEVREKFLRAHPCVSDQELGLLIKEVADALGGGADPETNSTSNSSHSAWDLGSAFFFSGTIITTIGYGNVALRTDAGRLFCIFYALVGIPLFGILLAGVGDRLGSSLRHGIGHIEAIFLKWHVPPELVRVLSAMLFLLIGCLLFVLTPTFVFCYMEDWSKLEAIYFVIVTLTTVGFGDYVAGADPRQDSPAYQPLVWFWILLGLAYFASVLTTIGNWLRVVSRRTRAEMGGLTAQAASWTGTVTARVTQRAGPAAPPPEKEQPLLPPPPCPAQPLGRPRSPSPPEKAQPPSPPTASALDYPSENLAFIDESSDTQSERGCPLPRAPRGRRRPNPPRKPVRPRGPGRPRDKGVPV

[2] = tested on: HEK293 cells (no exogenous K2P expression); assay: Resting membrane potential, current-clamp (I=0) in control HEK293 cells; assay type: cell-based; settings: 20 μM CAT335
Procedure: 50% confluent cells were co-transfected (in 35-mm diameter wells) with 10-100 ng of the K2P2.1 plasmid and 400 ng of an eGFP plasmid (for visualization) using LipofectAMINE 2000 (Invitrogen) for 24 h, after which the cells were either plated onto coverslips or the media exchanged with fresh media. Cells were plated onto Matrigel coated coverslips (BD Biosciences) 1-2 hours before experiments.
Whole-cell patch-clamp experiments with K2P2.1(TREK-1) and mutants were carried out 24-48 h after transfection. Acquisition and analysis for voltage-clamp experiments were performed using pCLAMP10 and an Axopatch 200B amplifier (Molecular Devices). Current-clamp experiments were acquired using an […] amplifier (Molecular Devices). Pipettes were pulled using a Flaming/Brown micropipette puller (P-97, Sutter Instruments) and flame-polished using a MF-830 microforge (Narishige). Electrode resistance after filling with pipette internal solution ranged from 2 to 5 MΩ. Currents were low-pass filtered at 2 kHz and sampled at 10 kHz. Pipette solution contained the following: 145 mM KCl, 3 mM MgCl2, 5 mM EGTA and 20 mM HEPES (pH 7.2 with KOH). Bath solution contained the following: 145 mM NaCl, 5 mM KCl, 1 mM CaCl2, 3 mM MgCl2 and 20 mM HEPES (pH 7.4 with NaOH). […] Data were analyzed using Clampfit 11 and GraphPad Prism 9.

Row | Structure (SMILES) | Solubility in aqueous solutions [1] | Sensitivity of channel to activator (K2P4.1 (TRAAK)) | Change of resting membrane potential (ΔRMP) [2]
1 | CS(=O)(=O)Nc1ccc(C(=O)NCc2ccc(Cl)cc2Cl)cc1 [ML335, reference compound] | insoluble in aqueous solutions | insensitive | 
2 | O=C(NCc1ccc(Cl)cc1Cl)c1ccc(N2C(=O)C=CC2=O)cc1 [CAT335] |  |  | +7 mV
